Results from US20080293583A1, “Methods for diagnosing mood disorders” (Wyeth, priority 2003, published 2008).

Key:
[1] = test system: 40 S ribosomal protein S 19; experiment: 2-DE proteome analysis of rat hippocampus: ribosomal protein S 19; assay type: in vivo; conditions: rat hippocampus cytosolic extract, 10 mg/kg i.p. daily 14 days, vs control; gel spot 72
Description: (§1) Animal dosing. Adult male Sprague Dawley rats weighing 230-320 g were housed with ad libitum access to food and water. After 1 week of habituation, rats were administered either an antidepressant or vehicle alone. The following drugs were administered intraperitoneally (i.p.): fluoxetine (10 mg/kg daily), venlafaxine (10 mg/kg daily) or vehicle alone (1 ml/kg normal saline daily) for 14 days (n=3 rats per group).
(§2) Sample preparation and cytosolic protein extraction. The animals were euthanized and hippocampi were rapidly dissected from the whole brain. Samples from each treatment group were pooled and stored at −85° C. Cytosolic extracts were prepared using the universal extraction kit from Sigma (prot-two) as follows: soluble cytoplasmic extraction reagent (S2688) was added to the hippocampal tissue (10 ml/250 mg wet weight). […]
(§3) Two-dimensional gel electrophoresis. […] Molecular masses were determined by running standard protein markers (Genomic Solutions Inc.), covering the range 10-200 kDa as well as internal verification via landmark proteins within the gel. […]
(§4) Protein fixation, silver staining and 2-D gel comparisons. […] Protein spots were outlined (first automatically and then manually) and quantified using the HT analyzer v2.2 software (Genomic Solutions Inc.). The software calculated the relative spot volume of the proteins compared with the total amount of protein in the gel. […]

[2] = test system: Transcription factor BTEB 1; experiment: 2-DE proteome analysis of rat hippocampus: BTEB 1; assay type: in vivo; conditions: rat hippocampus cytosolic extract, 10 mg/kg i.p. daily 14 days, vs control; gel spot 19
Description: as §1, §2, §3, §4

Row | SMILES | Fold change, 40 S ribosomal protein S 19 [1] [Fold change] | Fold change, Transcription factor BTEB 1 [2] [Fold change]
1 | CNCCC(Oc1ccc(C(F)(F)F)cc1)c1ccccc1 (stereo not shown) [Fluoxetine, fluoxetine] | 2 | 1.6
2 | COc1ccc(C(CN(C)C)C2(O)CCCCC2)cc1 (stereo not shown) [Venlafaxine, venlafaxine] | 1.8 | 2.3
